# According to patent publication US20230364029A1, “POLYMORPHIC FORMS OF (R)-2-HYDROXY-2-METHYL-4-(2,4,5-TRIMETHYL-3,6-DIOXOCYCLOHEXA-1,4-DIENYL)BUTANAMIDE” (PTC THERAPEUTICS, INC., priority 2014, published 2023):
# Key:
# Format in all cases: physicochemical
# [1] = Solubility measurement of Pattern A in 17 solvent systems (gravimetric); settings: for solubility: thermodynamic from solid
# Excerpt: (R)-Trolox was produced from racemic Trolox via methylbenzyl amine double resolution in a manner similar to that described in Example 29 of U.S. Pat. No. 4,026,907. This (R)-Trolox was used to synthesize the (R)-2-hydroxy-2-methyl-4-(2,4,5-trimethyl-3,6-dioxocyclohexa-1,4-dienyl)butanamide starting material. This starting material, designated as Pattern A, was used for the solubility measurement.
# Excess amount of solid was slurried in 17 solvent systems having diverse properties for minimum of 3 days. The slurry was centrifuged and the clear solution was used for gravimetric method. […] Limited solubility was observed from heptane, toluene, MTBE, water and 0.5% Methyl Cellulose in water at ambient and elevated temperatures. Table 9 presents the measured solubility data. A ±10% error is expected.
# [2] = Short term slurry experiments (form by XRPD); settings: slurried in most of 17 solvents, min. 3 days
# Procedure: Short term slurry experiments of the starting material, Pattern A, were performed for a minimum of 3 days in 17 different solvent systems having diverse properties at two different temperatures (25 and 50° C.). A 48 position Chemglass reaction block was used for heating and stirring the slurries which were in 2 mL HPLC vials. After the due time, vials were centrifuged and the wet solids were used for X-ray diffraction.
# [3] = 7 day elevated aqueous humidity studies; settings: for XRPD [Pattern] 7 day: form after 7 days
# Procedure: 7 day elevated aqueous humidity experiments were performed on all Patterns A, B, C, D, E and F at ambient conditions at > 95%RH (Table 17). Approximately 30 mg of each pattern was weighed into a 4 ml glass vial. The uncovered 4 ml vial was inserted into a 20 ml scintillation vial half filled with water and capped. Following 24 hours of equilibration, visual inspection was performed to check for changes in physical appearance, however no change was observed.
# Grinding experiments = settings: for XRPD after grinding: RT; for Stability of crystal form to grinding: light grinding, dry and with IPA or water
# Procedure: Grinding experiments of the starting material were performed by dry grinding and solvent drop grinding in IPA and water utilizing a mortar and pestle (Table 18).
# [4] = Aqueous solubility (HPLC); settings: water, thermodynamic from solid, ambient conditions, 24 hours of equilibration
# Procedure: Aqueous solubility of Patterns A, B, C, E and F was performed using an Agilent HPLC system. Approximately 10-20 mg of each form was charged to a 2 mL glass vial loaded with a magnetic stir bar and added 2 mL of water. The samples were allowed to stir overnight at ambient conditions. Following 24 hours of equilibration the samples were centrifuged and decanted into HPLC vials. A calibration curve was generated based on Pattern A in MeOH at 0.05, 0.1, 0.5 and 1.0 mg/mL. Following injection of the standard curve, the samples were run as is.
# [5] = Moisture sorption analysis; settings: for Hygroscopicity: moisture sorption, 0-95% RH cycles
# Procedure: (§1) Moisture sorption analysis of the starting material was performed by equilibrating the sample at 25° C. and 50% RH to simulate ambient lab conditions. Humidity then decreased to 0% RH, increased from 0 to 95% RH, reduced from 95 to 0% RH, increased from 0 to 95 %RH and then decreased from 95 to 50% RH. Each point represents the estimated asymptotic weight for each humidity or weight. […] No hysteresis was observed upon desorption (FIG. 14).
# as §1, with “of Pattern E (from” for “of”, “300 mg scale lot)” for “starting material”, “Humidity was” for “Humidity”, “19).” for “14).”
# Moisture sorption analysis of Pattern C (300 mg lot) was performed by equilibrating the sample at 25° C. and 50% RH to simulate ambient lab conditions. Humidity was then decreased to 0% RH, increased from 0 to 95% RH, reduced from 95 to 0% RH, increased from 0 to 95%RH and then decreased from 95 to 50% RH. Each point represents the estimated asymptotic weight for each humidity or weight. […] This increased the total water to about 6% which is the water content of mono-hydrate. However, upon reducing the relative humidity, the solid lost its water. Therefore this could be a channel hydrate. No hysteresis was observed upon desorption (FIG. 24).
# as §1, with “Pattern B (300 mg lot)” for “the starting material”, “The major weight loss at the beginning” for “No hysteresis”, “due to loss of solvent.” for “observed upon desorption (FIG. 14).”
# as §1, with “Pattern F (from Example 6)” for “the starting material”, “Humidity was” for “Humidity”, “The major weight loss at the beginning is due to loss of solvent.” for “No hysteresis was observed upon desorption (FIG. 14).”
smiles,measurement,setting,value
"CC1=C(C)C(=O)C(CC[C@@](C)(O)C(N)=O)=C(C)C1=O [Pattern A, (R)-2-hydroxy-2-methyl-4-(2,4,5-trimethyl-3,6-dioxocyclohexa-1,4-dienyl)butanamide]",Solubility in a simple detergent,[1]; 0.5% MC/2% Tween 80,increased solubility
same,solubility,"[1]; 0.5% methyl cellulose in water, 25 °C, aqueous with cosolvent or surfactant or cyclodextrin, 0.5% MC in Water, part of the concentration relates to solvent constituents",7 mg/mL
same,solubility,"[1]; 0.5% methyl cellulose in water, 50 °C, aqueous with cosolvent or surfactant or cyclodextrin, 0.5% MC in Water, part of the concentration relates to solvent constituents",4 mg/mL
same,solubility,"[1]; 0.5% methyl cellulose/2% Tween 80, 25 °C, aqueous with cosolvent or surfactant or cyclodextrin, 0.5% MC/2% Tween 80, 25° C., part of the concentration relates to solvent constituents",26 mg/mL
same,solubility,"[1]; 0.5% methyl cellulose/2% Tween 80, 50 °C, aqueous with cosolvent or surfactant or cyclodextrin, 0.5% MC/2% Tween 80, 50° C., part of the concentration relates to solvent constituents",30 mg/mL
same,solubility,"[1]; 2-MeTHF, 25 °C, organic solvent or mixture, gravimetric",35 mg/mL
same,solubility,"[1]; 2-MeTHF, 50 °C, organic solvent or mixture, gravimetric",59 mg/mL
same,solubility,"[1]; 4% DMA in PBS, 25 °C, aqueous buffer, part of the concentration relates to solvent constituents",10 mg/mL
same,solubility,"[1]; 4% DMA in PBS, 50 °C, aqueous buffer, part of the concentration relates to solvent constituents",13 mg/mL
same,solubility,"[1]; EtOAc, 25 °C, organic solvent or mixture, gravimetric",22 mg/mL
same,solubility,"[1]; EtOAc, 50 °C, organic solvent or mixture, gravimetric",38 mg/mL
same,solubility,"[1]; EtOH, 25 °C, organic solvent or mixture, gravimetric",40 mg/mL
same,solubility,"[1]; EtOH, 50 °C, organic solvent or mixture, gravimetric",> 121 mg/mL
same,Solubility in polar and non-polar solvents,"[1]; Example 2, summary statement",soluble in a variety of polar and non-polar solvents
same,solubility,"[1]; IPA, 25 °C, organic solvent or mixture, gravimetric",20 mg/mL
same,solubility,"[1]; IPA, 50 °C, organic solvent or mixture, gravimetric",53 mg/mL
same,solubility,"[1]; IPAc, 25 °C, organic solvent or mixture, gravimetric",13 mg/mL
same,solubility,"[1]; IPAc, 50 °C, organic solvent or mixture, gravimetric",16 mg/mL
same,solubility,"[1]; MTBE, 25 °C, organic solvent or mixture, gravimetric",10 mg/mL
same,solubility,"[1]; MTBE, 50 °C, organic solvent or mixture, gravimetric",16 mg/mL
same,solubility,"[1]; MeCN, 25 °C, organic solvent or mixture, gravimetric",20 mg/mL
same,solubility,"[1]; MeCN, 50 °C, organic solvent or mixture, gravimetric",38 mg/mL
same,solubility,"[1]; MeOH, 25 °C, organic solvent or mixture, gravimetric",> 101 mg/mL
same,solubility,"[1]; MeOH, 50 °C, organic solvent or mixture, gravimetric",> 112 mg/mL
same,solubility,"[1]; THF, 25 °C, organic solvent or mixture, gravimetric",28 mg/mL
same,solubility,"[1]; THF, 50 °C, organic solvent or mixture, gravimetric",33 mg/mL
same,solubility,"[1]; acetone, 25 °C, organic solvent or mixture, gravimetric",39 mg/mL
same,solubility,"[1]; acetone, 50 °C, organic solvent or mixture, gravimetric",90 mg/mL
same,solubility,"[1]; heptane, 25 °C, organic solvent or mixture, slurry min. 3 days, gravimetric",6 mg/mL
same,solubility,"[1]; heptane, 50 °C, organic solvent or mixture, slurry min. 3 days, gravimetric",6 mg/mL
same,solubility,"[1]; toluene, 25 °C, organic solvent or mixture, gravimetric",3 mg/mL
same,solubility,"[1]; toluene, 50 °C, organic solvent or mixture, gravimetric",< 18 mg/mL
same,solubility,"[1]; water, 25 °C, ^1Water (second water line), gravimetric",2 mg/mL
same,solubility,"[1]; water, 25 °C, gravimetric",3 mg/mL
same,solubility,"[1]; water, 50 °C, ^1Water (second water line), gravimetric",6 mg/mL
same,solubility,"[1]; water, 50 °C, gravimetric",3 mg/mL
same,Stability of form in short term slurry,[2],relatively stable
same,Visual Observations 1 day,[3]; > 95 %RH at Ambient,Yellow solids
same,Visual Observations 7 day,[3]; > 95 %RH at Ambient,Yellow Solids
same,XRPD [Pattern] 7 day,[3]; > 95 %RH at Ambient,no change in form
same,XRPD [Pattern] 7 day,"[3]; > 95 %RH at Ambient, listed as A",Crystalline [Pattern A]
same,Stability to elevated humidity,"[3]; Example 8, summary statement",stability to elevated humidity
same,XRPD after grinding,"Grinding experiments; dry grinding, mortar and pestle",Pattern A
same,Stability of crystal form to grinding,Grinding experiments,no change in the crystal form
same,Stability of crystal form to grinding,Grinding experiments; listed as Form I,stability to grinding
same,XRPD after grinding,"Grinding experiments; solvent drop grinding, H2O (2 drops)",Pattern A
same,XRPD after grinding,"Grinding experiments; solvent drop grinding, IPA (2 drops)",Pattern A
same,solubility at 24 h,[4],1.74 mg/mL
same,XRPD following moisture sorption analysis,[5]; after 0-95% RH cycles at 25° C.,"consistent with the starting material, Pattern A"
same,Water adsorbed,"[5]; at 90 %RH, 25° C.",0.1%
same,Hygroscopicity,[5]; 25° C.,non-hygroscopic
same,Hygroscopicity,"[5]; 25° C., listed as Form I",non-hygroscopic
same,Hysteresis upon desorption,"[5]; moisture sorption-desorption, 25° C.",No hysteresis
